Drawing on ChEMBL document CHEMBL6078612, “Novel strategies based on natural products and synthetic derivatives to overcome resistance in Mycobacterium tuberculosis” (Eur J Med Chem, 2024), this text covers MIC and IC50 for three molecules.

For assay [1], the system named is Mycobacterium tuberculosis. The experiment in a line: Antitubercular activity against XDR Mycobacterium tuberculosis. In kind it is functional.
Assay [2] can be described thus: Inhibition of Mycobacterium tuberculosis isocitrate lyase.
The subject of assay [3] is Mycobacterium tuberculosis. Description: Antimycobacterial activity against Mycobacterium tuberculosis H37Rv assessed as reduction in bacterial cell growth by resazurin reduction method. In kind it is functional.

Values after ≈ are worked out from the molar mass of the structure shown. Bounds are passed on as bounds.

In assay [1], `CC(=O)NC[C@H]1CN(c2ccc(N3CCOCC3)c(F)c2)C(=O)O1` [LINEZOLID] gave an MIC of 0.125 µg/mL (≈ 0.371 µM).
Take `O=c1c(O)c(-c2ccc(O)c(O)c2)oc2cc(O)cc(O)c12` [QUERCETIN]: 3.57 µM corresponded to half-maximal inhibition in assay [2] (IC50).
With H-GWLDVAKKIGKAAFNVAKNFI-OH, the values for the MIC in assay [1] and in assay [3] were < 0.97 µg/mL and < 0.98 µg/mL, respectively.
